Measurements reported in publication PMC8126888 (RSC Medicinal Chemistry, 2020).
Where two headings read alike, the source gives them in different places.

Key:
[1] = system: Leishmania infantum MHOM/MA(BE)/67/ITMAP263 intracellular amastigotes; conditions: intracellular amastigotes in PMM
[2] = system: primary peritoneal mouse macrophages (PMM); experiment: cells; conditions: Macrophage
in vitro [3] = conditions: human, microsomes
in vitro [4] = conditions: mouse, microsomes
[5] = system: Leishmania infantum MHOM/MA(BE)/67/ITMAP263 intracellular amastigotes; experiment: microbe, parasite or virus in culture; conditions: Macrophage, in Mus musculus
in vitro [6] = conditions: human
[7] = system: Trypanosoma cruzi, Tulahuen CL2, beta-galactosidase strain; experiment: microbe, parasite or virus in culture
in vitro [8] = conditions: human, HFF-1 cells
in vitro [9] = conditions: human, HepG2 cells
[10] = read-out: PMM pIC50 (converted)
[11] = pH 7.4, Microsome Clint,u Human, Table 2, intrinsic in vitro clearance, liver microsomes
[12] = pH 7.4, Microsome Clint,u Mouse, Table 2, intrinsic in vitro clearance, liver microsomes
[13] = HPLC, Ascentis Express RP Amide column, pH 7.4, elog D, HPLC measured log D, pH 7.4
[14] = read-out: L. inf. pIC50, intracellular amastigotes in PMM (converted), geometric mean of a minimum of two experiments ± standard error
[15] = pH 7.4, Microsome Clint Human, intrinsic in vitro clearance, liver microsomes
[16] = pH 7.4, Microsome Clint Mouse, intrinsic in vitro clearance, liver microsomes
[17] = pH 7.4, HLM CLint, human liver microsomes
[18] = pH 7.4, MLM CLint, mouse liver microsomes
[19] = HPLC, Ascentis Express RP Amide column, pH 7.4, eLogD, experimental
[20] = read-out: L. Inf. pIC50, from L. infantum intracellular amastigote IC50 (converted)
[21] = read-out: L. infantum MHOM/MA(BE)/67/ITMAP263 intracellular amastigotes IC50, intracellular amastigotes
[22] = MRC5, read-out: T. cruzi Tulahuen C4 (LacZ) IC50

CCN(Cc1ccccc1)S(=O)(=O)c1cc(OC)ccc1OC [Compound 38]
L. inf. pIC50 ([1]; geometric mean of a minimum of two experiments ± standard error): 5.60 ± 0.03
IC50 [2, 10]: > 64.6 µM
microsomal CLint at 0.5 μM (in vitro [3]; [11]): 534 µL/min/mg
microsomal CLint at 0.5 μM (in vitro [4]; [12]): 3500 µL/min/mg
chromatographic logD (physchem; [13]): 3.8
chromatographic logD (physchem; pH 7.4, elog D, HPLC measured log D, pH 7.4): 3.5
IC50 [5, 14]: 2.09 µM

COc1ccc(S(N)(=O)=O)cc1S(=O)(=O)N(Cc1ccccc1)Cc1ccccc1 [Compound 27]
IC50 [2, 10]: > 64.6 µM
microsomal CLint at 0.5 h, 0.5 µM (in vitro [3]; [15]): 94.1 µL/min/mg
microsomal CLint at 0.5 h, 0.5 µM (in vitro [4]; [16]): 884 µL/min/mg
chromatographic logD (physchem; [13]): 3.6
IC50 [5, 14]: 0.562 µM

O=S1(=O)c2cc(F)ccc2OC(c2ccc(F)cc2)CN1Cc1ccccc1 (stereo not shown) [DNDI0003371160]
IC50 ([2]; read-out: PMM IC50): > 64 µM
microsomal CLint at 0.5 μM (in vitro [3]; [17]): 398 µL/min/mg
microsomal CLint at 0.5 μM (in vitro [4]; [18]): 323 µL/min/mg
chromatographic logD (physchem; [19]): 4.9
CC50 at 3 days (in vitro [6]): > 64 µM
IC50 [5, 20]: 20.4 µM
IC50 [5, 21]: 20.2 µM
IC50 [7, 22]: 7.97 µM

COc1ccc(OC)c(S(=O)(=O)N(Cc2ccc(F)cc2)Cc2nc(C)no2)c1 [Compound 36]
IC50 [2, 10]: > 64.6 µM
microsomal CLint at 0.5 μM (in vitro [3]; [11]): 350 µL/min/mg
microsomal CLint at 0.5 h, 0.5 µM (in vitro [4]; [12]): 3050 µL/min/mg
chromatographic logD (physchem; [13]): 3.5
IC50 [5, 14]: 7.76 µM

O=S(=O)(c1cc(F)ccc1F)N(Cc1ccccc1)C(CO)c1ccc(F)cc1 (stereo not shown) [DNDI0003378486]
IC50 ([2]; read-out: PMM IC50 (uM)): > 64 µM
CC50 at 3 days (in vitro [6]): 21.2 µM
CC50 (in vitro [8]): 1670 nM
CC50 (in vitro [9]): 24.4 µM
IC50 [5, 20]: 35.5 µM
IC50 ([5]; read-out: L. infantum MHOM/MA(BE)/67/ITMAP263 intracellular amastigotes IC50 (uM), intracellular amastigotes): 35.5 µM
IC50 ([7]; MRC5, read-out: T. cruzi Tulahuen C4 (LacZ) IC50 (uM)): 13.7 µM

COc1ccc([S+](C)[O-])cc1S(=O)(=O)N(Cc1ccccc1)Cc1ccccc1 (stereo not shown) [Compound 28]
IC50 [2, 10]: > 64.6 µM
microsomal CLint at 0.5 h, 0.5 µM (in vitro [3]; [15]): 233 µL/min/mg
microsomal CLint at 0.5 h, 0.5 µM (in vitro [4]; [16]): 929 µL/min/mg
chromatographic logD (physchem; [13]): 3.5
IC50 [5, 14]: 0.589 µM

COCCN(Cc1ccc(F)cc1)S(=O)(=O)c1ccccc1OC(F)(F)F [Compound 40]
IC50 [2, 10]: > 64.6 µM
microsomal CLint at 0.5 h, 0.5 µM (in vitro [3]; [11]): 194 µL/min/mg
microsomal CLint at 0.5 h, 0.5 µM (in vitro [4]; [12]): 222 µL/min/mg
chromatographic logD (physchem; [13]): 3.8
IC50 [5, 14]: 8.32 µM

N#Cc1ccc(O)c(S(=O)(=O)N(Cc2ccc(F)cc2)Cc2ccc(F)cc2)c1 [Compound 16]
IC50 [2, 10]: 45.7 µM
microsomal CLint at 0.5 h, 0.5 µM (in vitro [3]; [15]): 27.4 µL/min/mg
microsomal CLint at 0.5 h, 0.5 µM (in vitro [4]; [16]): 1100 µL/min/mg
chromatographic logD (physchem; [13]): 3.7
IC50 [5, 14]: 30.9 µM

CS(=O)(=O)c1ccccc1S(=O)(=O)N(Cc1ccccc1)Cc1ccccc1 [Compound 14]
IC50 [2, 10]: > 64.6 µM
microsomal CLint at 0.5 h, 0.5 µM (in vitro [3]; [15]): 417 µL/min/mg
microsomal CLint at 0.5 h, 0.5 µM (in vitro [4]; [16]): 2880 µL/min/mg
chromatographic logD (physchem; [13]): 4
IC50 [5, 14]: 32.4 µM

COCCN(Cc1ccc(F)cc1)S(=O)(=O)c1cc(C#N)ccc1OC [Compound 41]
IC50 [2, 10]: > 64.6 µM
microsomal CLint at 0.5 μM (in vitro [3]; [11]): < 23 µL/min/mg
microsomal CLint at 0.5 h, 0.5 µM (in vitro [4]; [12]): 585 µL/min/mg
chromatographic logD (physchem; [13]): 3.4
IC50 [5, 14]: 8.91 µM

COc1ccc(C(=O)O)cc1S(=O)(=O)N(Cc1ccccc1)Cc1ccccc1 [Compound 20]
IC50 [2, 10]: > 64.6 µM
microsomal CLint at 0.5 μM (in vitro [3]; [15]): < 23 µL/min/mg
microsomal CLint at 0.5 h, 0.5 µM (in vitro [4]; [16]): 94 µL/min/mg
chromatographic logD (physchem; [13]): 2.5
IC50 [5, 14]: 57.5 µM

COc1ccc(OC)c(S(=O)(=O)N(Cc2ccccc2)C2CCCNC2)c1 (stereo not shown) [DNDI0003366131]
IC50 ([2]; read-out: PMM IC50): > 64 µM
microsomal CLint at 0.5 μM (in vitro [3]; [17]): 347 µL/min/mg
microsomal CLint at 0.5 μM (in vitro [4]; [18]): 96 µL/min/mg
chromatographic logD (physchem; [19]): 3.2
CC50 at 3 days (in vitro [6]): 58.5 µM
IC50 [5, 20]: 29.5 µM
IC50 [5, 21]: 29.5 µM
IC50 [7, 22]: 31.6 µM

COc1ccc(C#N)cc1S(=O)(=O)N(Cc1ccc(F)cc1)C1CCOCC1 [Compound 43]
potency against L. inf. in words [1]: inactive
IC50 [2, 10]: > 64.6 µM
microsomal CLint at 0.5 μM (in vitro [3]; [11]): 194 µL/min/mg
microsomal CLint at 0.5 μM (in vitro [4]; [12]): 253 µL/min/mg
chromatographic logD (physchem; [13]): 3.4
IC50 [5, 14]: > 64.6 µM

COc1ccc(S(=O)(=O)N(Cc2ccccc2)Cc2ccccc2)cc1 [Compound 11]
IC50 [2, 10]: > 64.6 µM
microsomal CLint at 0.5 μM (in vitro [3]; [15]): 184 µL/min/mg
microsomal CLint at 0.5 μM (in vitro [4]; [16]): 2410 µL/min/mg
chromatographic logD (physchem; [13]): 4.7
IC50 [5, 14]: 45.7 µM

COc1ccc(C(=O)N2CCOCC2)cc1S(=O)(=O)N(Cc1ccc(F)cc1)CC(C)C [Compound 44]
IC50 [2, 10]: > 64.6 µM
microsomal CLint at 0.5 h, 0.5 µM (in vitro [3]; [11]): 1050 µL/min/mg
microsomal CLint at 0.5 h, 0.5 µM (in vitro [4]; [12]): 1400 µL/min/mg
chromatographic logD (physchem; [13]): 3.6
IC50 [5, 14]: 6.92 µM

COc1ccc(OC)c(S(=O)(=O)N(Cc2ccc(F)cc2)Cc2ccnn2C)c1 [Compound 35]
IC50 [2, 10]: 45.7 µM
microsomal CLint at 0.5 h, 0.5 µM (in vitro [3]; [11]): 651 µL/min/mg
microsomal CLint at 0.5 μM (in vitro [4]; [12]): 5480 µL/min/mg
chromatographic logD (physchem; [13]): 3.5
IC50 [5, 14]: 5.25 µM
